From patent US6906093B2, “Indolinone combinatorial libraries and related products and methods for the treatment of disease” (Sugen, Inc., priority 1995, dated 2005)

Tests used:
EpH4-VEGF = experiment: FLK-1/Xenograft Model, subcutaneous tumor growth; format: in vivo, mice
Procedure: Assay 2: FLK-1/Xenograft Model.
The ability of the compounds of the present invention to inhibit ovarian, melanoma, prostate, lung and mammary tumor cell lines established as SC xenografts was examined. These studies were conducted using doses ranging from 1 to 75 mg/kg/day.
Materials And Methods. The tumor cells were implanted subcutaneously into the indicated strains of mice. Treatment was initiated on day 1 post implantation unless otherwise indicated (e.g. treatment of the SCID mouse related to the A375 melanoma cell line began on Day 9). Eight (8) to sixteen (16) mice comprised each test group.
Animals. Female athymic mice (BALB/c, nu/nu), BALB/c mice, Wistar rats and Fisher 344 rats were obtained from Simonsen Laboratories (Gilroy, Calif.). Female A/I mice were obtained from Jackson Laboratory (Bar Harbor, Me.). DA rats were obtained from B&K Universal, Inc. (Fremont, Calif.). Athymic R/Nu rats, DBA/2N mice, and BALB/c mice were obtained from Harlan Sprague Dawley (Indianapolis, Ind.). Female C57BL/6 mice were obtained from Taconic (Germantown, N.Y.). […]
Subcutaneous Xenograft Model. […] Tumor growth was measured over 3 to 6 weeks using venier calipers tumor volumes were calculated as a product of length×width×height unless otherwise indicated. P values were calculated using the Students' t-test. […]

HUV-EC-C cells [1] = experiment: HUV-EC-C assay, a-FGF (ECGF)-induced [3H]thymidine incorporation; format: cell-based, human; settings: a-FGF-stimulated HUV-EC cells; read-out: Mitogenesis in Endothelial Cells, [3H] Thymidine Incorporation, HUV-EC Assay, a-FGF
Procedure: (§1) Repeat the wash two more times with D-PBS, resuspend the cells in about 1 ml assay medium/15 cm^2 of tissue culture flask.
(§2) Add cells to 96-well flat-bottom plates at 100 μl/well or 0.8-1.0×10^4 cells/well; incubate ˜24 h at 37° C., 5% CO2.
(§3) Use the same assay medium as mentioned in day 0, step 2 above. Titrations are made by adding 90 μl/well of drug at 200 μM (4× the final well concentration) to the top well of a particular plate column. Since the stock drug concentration-is usually 20 mM in DMSO, the 200 μM drug concentration contains 2% DMSO.
(§4) Therefore, diluent made up to 2% DMSO in assay medium (F12K+0.5% fetal bovine serum) is used as diluent for the drug titrations in order to dilute the drug but keep the DMSO concentration constant. Add this diluent to the remaining wells in the column at 60 μl/well. Take 60 μl from the 120 μl of 200 μM drug dilution in the top well of the column and mix with the 60 μl in the second well of the column. Take 60 μl from this well and mix with the 60 μl in the third well of the column, and so on until two-fold titrations-are completed. When the next-to-the-last well is mixed, take 60 μl of the 120 μl in this well and discard it. Leave the last well with 60 μl of DMSO/media diluent as a non-drug-containing control. […] 9 columns of titrated drug, enough for triplicate wells each for 1) VEGF (obtained from Pepro Tech Inc., catalogue no. 100-200, 2) endothelial cell growth factor (ECGF) (also known as acidic fibroblast growth factor, or aFGF) (obtained from Boehringer Mannheim Biochemica, catalogue no. […] ECGF comes as a preparation with sodium heparin.
(§5) Transfer 50 μl/well of the drug dilutions to the 96-well assay plates containing the 0.8-1.0×10^4 cells/100 μl/well of the HUV-EC-C cells from day 0 and incubate ˜2 h at 37° C., 5% CO2.
(§6) In triplicate, add 50 μl/well of 80 μg/ml VEGF, 20 ng/ml ECGF, or media control to each drug condition. As with the drugs, the growth factor concentrations are 4× the desired final concentration. Use the assay media from day 0 step 2 to make the concentrations of growth factors.
Freeze plates overnight at −20° C.

HER2 Kinase = molecular target: T1, HER2 Kinase (Homo sapiens, UniProt P04626); experiment: HER-2 ELISA (whole-cell HER2 kinase activity); format: cell-based; settings: whole cells
T1 construct: fused on or other part: Candidate partner: EGFR extracellular domain (P00533) in place of HER2's own ectodomain if Assay 1 was used; none if Assay 2 (BT-474) was used
T1 sequence (P04626 720-987 limits assumed): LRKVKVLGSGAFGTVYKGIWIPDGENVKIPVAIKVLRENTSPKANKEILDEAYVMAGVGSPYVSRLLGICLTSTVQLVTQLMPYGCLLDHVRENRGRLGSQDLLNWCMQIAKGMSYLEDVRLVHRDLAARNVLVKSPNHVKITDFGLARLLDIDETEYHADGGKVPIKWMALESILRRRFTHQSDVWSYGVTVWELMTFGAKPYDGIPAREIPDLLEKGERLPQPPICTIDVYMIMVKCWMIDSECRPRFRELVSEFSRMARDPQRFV
Procedure: Assay 1: EGF Receptor-HER2 Chimeric Receptor Assay In Whole Cells. HER2 kinase activity in is whole EGFR-NIH3T3 cells was measured as described below:
Materials and Reagents. The following materials and reagents were used to conduct the assay: • a. […] Anti-phosphotyrosine antibody (anti-Ptyr) (polyclonal) (see, Fendley, et al., supra). • d. Detection antibody: Goat anti-rabbit lgG horse radish peroxidase conjugate, TAGO, Inc., Burlingame, Calif. • e. TBST buffer:
Stock reagents of: • EDTA 100 mM pH 7.0 • Na3VO4 0.5 M • Na4(P2O7) 0.2 M
(§7) Procedure. The following protocol was used:
Coated plates are good for up to 10 days when stored at 4° C.
On day of use, remove coating buffer and replace with 100 μl blocking buffer (5% Carnation Instant Non-Fat Dry Milk in PBS). Incubate the plate, shaking, at room temperature (about 23° C. to 25° C.) for 30 minutes. Just prior to use, remove blocking buffer and wash plate 4 times with TBST buffer.
An NIH3T3 cell line overexpressing a chimeric receptor containing the EGFR extracellular domain and extracellular HER2 kinase domain can be used for this assay.
Choose dishes having 80-90% confluence for the experiment. Trypsinize cells and stop reaction by adding 10% fetal bovine serum. Suspend cells in DMEM medium (10% CS DMEM medium) and centrifuge once at 1500 rpm, at room temperature for 5 minutes.
Resuspend cells in seeding medium (DMEM, 0.5% bovine serum), and count the cells using trypan blue. Viability above 90% is acceptable. Seed cells in DMEM medium (0.5% bovine serum) at a density of 10,000 cells per well, 100 μl per well, in a 96 well microtiter plate. Incubate seeded cells in 5% CO2 at 37° C. for about 40 hours.
Check seeded cells for contamination using an inverted microscope. Dilute drug stock (10 mg/ml in DMSO) 1:10 in DMEM medium, then transfer 5 l to a TBST well for a final drug dilution of 1:200 and a final DMSO concentration of 1%. Control wells receive DMSO alone. Incubate in 5% CO2 at 37° C. for two hours.
Prepare EGF ligand: dilute stock EGF in DMEM so that upon transfer of 10 μl dilute EGF (1:12 dilution), 100 nM final concentration is attained.
Prepare fresh HNTG* sufficient for 100 μl per well; and place on ice.
After 120 minutes incubation with drug, add prepared SGF ligand to cells, 10 μl per well, to a final concentration of 100 nM. Control wells receive DMEM alone. Incubate, shaking, at room temperature, for 5 minutes.
Remove drug, EGF, and DMEM. Wash cells twice with PBS. Transfer HNTG* to cells, 100 μl per well. Place on ice for 5 minutes. Meanwhile, remove blocking buffer from other ELISA plate and wash with TBST as described above. […]
The maximal phosphotyrosine signal is determined by subtracting the value of the negative controls from the positive controls.

FLK-1 receptor = molecular target: T2, FLK-1 receptor (Mus musculus, UniProt P35918); experiment: FLK-1 ELISA in FLK-1/NIH3T3 cells; format: cell-based; settings: ELISA, FLK-1/NIH3T3 cells, VEGF stimulated
T2 construct: expressed in transfected cells; host or cells: NIH3T3 C7 #3
T2 sequence (P35918 20-1345): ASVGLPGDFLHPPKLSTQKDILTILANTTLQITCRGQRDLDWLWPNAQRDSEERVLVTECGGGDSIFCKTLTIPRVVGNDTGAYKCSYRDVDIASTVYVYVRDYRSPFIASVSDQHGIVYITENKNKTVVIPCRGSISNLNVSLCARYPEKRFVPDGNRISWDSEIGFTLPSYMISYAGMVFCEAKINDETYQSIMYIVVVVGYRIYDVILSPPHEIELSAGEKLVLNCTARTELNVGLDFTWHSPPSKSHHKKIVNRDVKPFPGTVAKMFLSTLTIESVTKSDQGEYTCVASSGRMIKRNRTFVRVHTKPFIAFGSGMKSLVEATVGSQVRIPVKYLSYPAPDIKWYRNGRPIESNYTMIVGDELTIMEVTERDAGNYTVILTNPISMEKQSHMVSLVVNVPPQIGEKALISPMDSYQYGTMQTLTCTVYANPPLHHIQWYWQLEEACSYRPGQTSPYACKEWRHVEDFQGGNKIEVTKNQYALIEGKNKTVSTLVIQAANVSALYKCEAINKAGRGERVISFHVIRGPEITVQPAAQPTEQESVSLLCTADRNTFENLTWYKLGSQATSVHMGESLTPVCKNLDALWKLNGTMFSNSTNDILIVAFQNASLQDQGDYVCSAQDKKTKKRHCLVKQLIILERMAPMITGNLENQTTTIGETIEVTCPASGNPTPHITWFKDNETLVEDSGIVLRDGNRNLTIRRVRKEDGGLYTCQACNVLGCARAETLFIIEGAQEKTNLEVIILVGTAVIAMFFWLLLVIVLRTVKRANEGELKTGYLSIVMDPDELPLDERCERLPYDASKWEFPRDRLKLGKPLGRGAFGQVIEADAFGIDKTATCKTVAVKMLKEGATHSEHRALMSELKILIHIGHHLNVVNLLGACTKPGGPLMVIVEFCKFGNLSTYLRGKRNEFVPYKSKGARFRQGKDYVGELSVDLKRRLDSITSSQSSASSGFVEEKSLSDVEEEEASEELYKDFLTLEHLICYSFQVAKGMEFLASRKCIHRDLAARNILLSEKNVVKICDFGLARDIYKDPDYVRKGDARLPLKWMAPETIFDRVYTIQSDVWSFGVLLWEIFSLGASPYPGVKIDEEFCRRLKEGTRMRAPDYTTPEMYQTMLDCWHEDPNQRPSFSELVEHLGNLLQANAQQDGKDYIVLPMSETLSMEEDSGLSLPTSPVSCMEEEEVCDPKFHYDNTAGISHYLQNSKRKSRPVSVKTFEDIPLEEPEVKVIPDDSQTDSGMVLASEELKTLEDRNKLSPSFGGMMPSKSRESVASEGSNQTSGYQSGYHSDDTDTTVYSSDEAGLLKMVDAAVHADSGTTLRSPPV

PDGFR = experiment: PDGF-R ELISA (receptor phosphotyrosine in whole cells); format: cell-based; settings: U1242 cells
Procedure: All cell culture media, glutamine, and fetal bovine serum were purchased from Gibco Life Technologies (Grand Island, N.Y.) unless otherwise specified. […] All cell lines were routinely subcultured twice a week and were negative for mycoplasma as determined by the Mycotect method (Gibco).
For ELISA assays, cells (U1242, obtained from Joseph Schlessinger, NYU) were grown to 80-90% confluency in growth medium (MEM with 10% FBS, NEAA, 1 mM NaPyr and 2 mM GLN) and seeded in 96-well tissue culture plates in 0.5% serum at 25,000 to 30,000 cells per well. After overnight incubation in 0.5% serum-containing medium, cells were changed to serum-free medium and treated with test compound for 2 hr in a 5% CO2, 37° C. incubator. […] Lysates were incubated with shaking for 1 hour at room temperature. The plates were washed with TBST four times and then incubated with polyclonal anti-phosphotyrosine antibody at room temperature for 30 minutes. Excess anti-phosphotyrosine antibody was removed by rinsing the plate with TBST four times. Goat anti-rabbit IgG antibody was added to the ELISA plate for 30 min at room temperature followed by rinsing with TBST four more times. […] Absorbance at 410 nm with a reference wavelength of 630 nm was recorded about 15 to 30 min after ABTS addition.

[2] = system: 3T3/PDGFR + PDGF (T) cells; experiment: 3T3/PDGF-βR/PDGF-BB(T) Cell Growth SRB Assay; format: cell-based; settings: NIH 3T3 cells expressing PDGF-βR and PDGF-ββ, tumor-derived; read-out: Cell Growth Assay, SRB Readout, 3T3/PDGFR + PDGF (T) IC50
Procedure: Assay 3: 3T3/PDGF-βR/PDGF-BB(T) Cell Growth SRB Assay
This part of assay is carried out in a laminar flow hood.
Trypsinize cells as usual. Transfer 200 μl of cell suspension to 10 ml of isotone. Count cells on the Coulter Counter.
Dilute cells in growth medium to 60,000 cells/ml. Transfer 100 μl of cells to each well in a 96-well flat bottom plate to give 6000 cells/well.
Gently shake plates to allow for uniform attachment of the cells to the plate.
Incubate the plates at 37° C. in a 10% CO2 incubator.
Day 1: Addition of Compound: same as for Assay 1.
Day 5: Development of Assay: same as for Assay 1.

HUV-EC-C cells [3] = experiment: HUV-EC-C assay, VEGF-induced [3H]thymidine incorporation; format: cell-based, human; settings: VEGF-stimulated HUV-EC cells; read-out: Mitogenesis in Endothelial Cells, [3H] Thymidine Incorporation, HUV-EC Assay, VEGF
Procedure: as §1, §2, §3, §4, §5, §6
Freeze plates overnight at −20° C.

EGF Receptor = molecular target: T3, EGF Receptor (Homo sapiens, UniProt P00533); experiment: EGF Receptor ELISA (EGFR-NIH3T3 assay); format: cell-based; settings: EGFR-NIH3T3 whole cells
T3 construct: expressed in transfected cells; host or cells: NIH 3T3/C7 (3T3/EGFRc7)
T3 sequence (P00533 25-1210): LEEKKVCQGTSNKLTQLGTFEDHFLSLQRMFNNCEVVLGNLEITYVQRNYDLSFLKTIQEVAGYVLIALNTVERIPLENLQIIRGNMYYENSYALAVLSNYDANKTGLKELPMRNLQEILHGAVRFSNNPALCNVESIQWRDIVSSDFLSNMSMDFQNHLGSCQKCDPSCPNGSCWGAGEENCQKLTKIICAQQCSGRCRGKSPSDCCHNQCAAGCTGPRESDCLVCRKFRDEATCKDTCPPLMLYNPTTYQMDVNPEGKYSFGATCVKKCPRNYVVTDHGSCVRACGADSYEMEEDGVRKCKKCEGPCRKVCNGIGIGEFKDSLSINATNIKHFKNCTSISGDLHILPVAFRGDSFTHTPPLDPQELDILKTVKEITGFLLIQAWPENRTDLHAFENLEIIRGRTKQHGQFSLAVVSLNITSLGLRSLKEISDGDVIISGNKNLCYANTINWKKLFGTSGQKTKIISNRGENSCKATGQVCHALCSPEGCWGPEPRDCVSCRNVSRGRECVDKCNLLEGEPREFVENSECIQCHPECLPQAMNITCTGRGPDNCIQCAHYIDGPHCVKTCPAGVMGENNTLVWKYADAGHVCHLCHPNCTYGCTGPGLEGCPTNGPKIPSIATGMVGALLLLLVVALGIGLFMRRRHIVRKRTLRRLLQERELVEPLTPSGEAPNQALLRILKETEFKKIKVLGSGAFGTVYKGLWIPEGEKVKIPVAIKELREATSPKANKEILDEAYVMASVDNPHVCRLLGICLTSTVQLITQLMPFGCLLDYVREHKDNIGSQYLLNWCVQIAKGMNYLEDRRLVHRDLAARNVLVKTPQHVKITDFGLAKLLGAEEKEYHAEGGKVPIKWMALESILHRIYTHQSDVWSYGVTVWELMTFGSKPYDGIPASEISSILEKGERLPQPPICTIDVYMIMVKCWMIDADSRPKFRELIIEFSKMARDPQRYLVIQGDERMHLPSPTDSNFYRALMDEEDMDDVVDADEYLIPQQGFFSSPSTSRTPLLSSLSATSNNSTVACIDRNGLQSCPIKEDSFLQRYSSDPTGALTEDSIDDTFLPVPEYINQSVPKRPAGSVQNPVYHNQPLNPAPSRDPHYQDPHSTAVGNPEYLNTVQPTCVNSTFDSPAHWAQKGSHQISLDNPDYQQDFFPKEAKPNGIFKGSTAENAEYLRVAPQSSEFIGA
Procedure: EGF Receptor kinase activity (EGFR-NIH3T3 assay) in whole cells was measured as described below:
Materials and Reagents. The following materials and reagents were used • a. […] Anti-phosphotyosine antibody (anti-Ptyr) (polyclonal). • d. Detection antibody: Goat anti-rabbit lgG horse radish peroxidase conjugate, TAGO, Inc., Burlingame, Calif. • e. TBST buffer:
• Keep solution in dark at 4° C. until used. • h. Stock reagents of: • EDTA 100 mM pH 7.0 • Na3VO4 0.5 M • Na4(P2O7) 0.2 M
as §7
1. […] Coated plates are good for up to 10 days when stored at 4° C.
2. On day of use, remove coating buffer and replace with blocking buffer (5% Carnation Instant NonFat Dry Milk in PBS). Incubate the plate, shaking, at room temperature (about 23° C. to 25° C.) for 30 minutes. Just prior to use, remove blocking buffer and wash plate 4 times with TBST buffer.
2. Choose dishes having 80-90% confluence for the experiment. Trypsinize cells and stop reaction by adding. 10% CS DMEM medium. Suspend cells in DMEM medium (10% CS DMEM medium) and centrifuge once at 1000 rpm, and once at room temperature for 5 minutes.
3. Resuspend cells in seeding medium (DMEM, 0.5% bovine serum), and count the cells using trypan blue. Viability above 90% is acceptable. Seed cells in DMEM medium (0.5% bovine serum) at a density of 10,000 cells per well, 100 μl per well, in a 96 well microtiter plate. Incubate seeded cells in 5% CO2 at 37° C. for about 40 hours.
1. Check seeded cells for contamination using an inverted microscope. Dilute drug stock (10 mg/ml in DMSO) 1:10 in DMEM medium, then transfer 5 μl to a test well for a final drug dilution of 1:200 and a final DMSO concentration of 1%. Control wells receive DMSO alone. Incubate in 5% CO2 at 37° C. for one hour.
5. […] Control wells receive. DMEM alone. […]
The maximal phosphotyrosine signal is determined by subtracting the value of the negative controls from the positive controls. The percent inhibition of phosphotyrosine content for extract-containing wells is then calculated, after subtraction of the negative controls.

SMILES	IC50 (HER2 Kinase)	IC50 (FLK-1 receptor)	IC50 (EGF Receptor)	further results
O=C1Nc2ccccc2C1=Cc1ccc(Br)cc1 [SU4942, 3-(4-Bromobenzylidenyl)-2-indolinone]	–	–	–	EpH4-VEGF % inhibition @ mg/kg (EpH4-VEGF; @ 25 mg/kg): 47% @ 25; EpH4-VEGF % inhibition @ mg/kg (EpH4-VEGF; @ 50 mg/kg): 46% @ 50; IC50 (HUV-EC-C cells [1]): 4.6 µM
CN1C(=O)C(=Cc2ccc(Br)cc2)c2ccccc21 [SU4956, 3-(4-Bromobenzylidenyl)-1-methyl-2-indolinone]	22.5 µM	–	–	–
CN1C(=O)C(=Cc2ccc(N3CCOCC3)cc2)c2ccccc21 [SU4982, 1-Methyl-3-[4-(morpholin-4-yl)benzylidenyl]-2-indolinone]	39.4 µM	21.6 µM	–	–
O=CN1CCN(c2ccc(C=C3C(=O)Nc4ccccc43)cc2)CC1 [SU4984, 3-[4-(4-Formylpiperazin-1-yl)benzylidenyl]-2-indolinone]	90.2 µM	1.6 µM	–	IC50 (HUV-EC-C cells [1]): 25.8 µM; IC50 (PDGFR): 5.8 µM; IC50 [2]: 22.2 µM; IC50 (HUV-EC-C cells [3]): 0.8 µM
COc1ccccc1C=C1C(=O)Nc2ccccc21 [SU5214, 3-(2-Methoxybenzylidenyl)-2-indolinone]	–	14.8 µM	36.7 µM	–
O=C1Nc2ccccc2C1=Cc1ccc(N2CCCCC2)cc1 [SU5450, 3-[4-(Piperidin-1-yl)benzylidenyl]-2-indolinone]	92.6 µM	4.5 µM	–	–
CCc1ccc(C=C2C(=O)Nc3ccccc32)s1 [SU5451, 3-[(2-Ethylthien-5-yl)methylene]-2-indolinone]	–	3.4 µM	44 µM	–
COc1ccc(C=C2C(=O)Nc3ccccc32)c(Cl)c1 [SU5480, 3-[2-Chloro-4-methoxybenzylidenyl]-2-indolinone]	–	5.3 µM	39.6 µM	–
